Test results published in patent US11840686B2, “Modulation of prekallikrein (PKK) expression” (Ionis Pharmaceuticals, Inc., priority 2013, dated 2023).
Strand notation (5' to 3'): a small letter for the sugar, then the base; units joined by * are phosphorothioate-linked, units joined directly phosphodiester-linked; [ ] holds rarer units or linkages, { } end groups; capitals alone tell only the bases. e = 2'-O-(2-methoxyethyl) (MOE); [5mC] = 5-methylcytosine; d = 2'-deoxy (DNA)

Legend:
[1] = system: human PKK mRNA; test: Dose-dependent antisense inhibition of human PKK in HepaRG cells, 0.12-10.00 uM (Example 4); format: cell-based; settings: electroporation, ~16 h
Experimental: Cells were plated at a density of 20,000 cells per well and transfected using electroporation with 0.12 μM, 0.37 μM, 1.11 μM, 3.33 μM, and 10.00 μM concentrations of antisense oligonucleotide. After a treatment period of approximately 16 hours, RNA was isolated from the cells and PKK mRNA levels were measured by quantitative real-time PCR. Human PKK primer probe set RTS3454 was used to measure mRNA levels. PKK mRNA levels were adjusted according to total RNA content, as measured by RIBOGREEN®. The antisense oligonucleotides were tested in a series of experiments that had similar culture conditions. Results are presented as percent inhibition of PKK, relative to untreated control cells.
The half maximal inhibitory concentration (IC50) of each oligonucleotide is also presented.

[2] = system: human PKK mRNA; test: Antisense inhibition of human PKK mRNA in HepaRG cells, 3,000 nM (Example 1); format: cell-based; settings: relative to untreated control cells
In short: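 Values give percent PKK mRNA reduction relative to untreated controls, normalised to RIBOGREEN total RNA. mRNA was quantified by real-time PCR (RTS3454) about 24 h after electroporation. Each 20-mer MOE gapmer was delivered at 3,000 nM into 20,000 HepaRG cells per well.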

[3] = Table 2, PKK mRNA, HepaRG cells, 3,000 nM, electroporation, ~24 h
[4] = Table 1, PKK mRNA, HepaRG cells, 3,000 nM, electroporation, ~24 h
[5] = Table 4, HepaRG cells, electroporation with 3,000 nM antisense oligonucleotide, approx. 24 hours, PKK mRNA by RT-PCR (RTS3454)

| Substance | percent inhibition of PKK at 0.12 μM ([1]; Table 33, 0.12 μM) [%] | percent inhibition of PKK at 0.37 μM ([1]; Table 33, 0.37 μM) [%] | percent inhibition of PKK at 1.11 μM ([1]; Table 33, 1.11 μM) [%] | percent inhibition of PKK at 3.33 μM ([1]; Table 33, 3.33 μM) [%] | percent inhibition of PKK at 10.00 μM ([1]; Table 33, 10.00 μM) [%] | IC50 ([1]; Table 33, PKK mRNA) [nM] | % inhibition [2, 3] [%] | percent inhibition of PKK at 0.12 μM ([1]; Table 32, 0.12 μM) [%] | percent inhibition of PKK at 0.37 μM ([1]; Table 32, 0.37 μM) [%] | percent inhibition of PKK at 1.11 μM ([1]; Table 32, 1.11 μM) [%] | percent inhibition of PKK at 3.33 μM ([1]; Table 32, 3.33 μM) [%] | percent inhibition of PKK at 10.00 μM ([1]; Table 32, 10.00 μM) [%] | IC50 ([1]; Table 32, PKK mRNA) [nM] | % inhibition [2, 4] [%] | % inhibition [2, 5] [%] |
| --- | --- | --- | --- | --- | --- | --- | --- | --- | --- | --- | --- | --- | --- | --- | --- |
| 531069 (e[5mC]*e[5mC]*eA*eG*eT*d[5mC]*d[5mC]*dA*dT*dG*dT*dA*d[5mC]*dT*d[5mC]*eA*eG*e[5mC]*eG*eA; antisense) [compound 531069] | 19 | 39 | 48 | 76 | 83 | 900 | 56 |  |  |  |  |  |  |  |  |
| 530933 (antisense eT*eG*eG*eA*eG*dG*dT*dG*dA*dG*dT*d[5mC]*dT*d[5mC]*dT*eT*eG*eT*e[5mC]*eA) [compound 530933] |  |  |  |  |  |  |  | 15 | 13 | 42 | 67 | 66 | 1700 | 76 |  |
| 531236 (eA*eT*e[5mC]*eA*e[5mC]*dT*dG*dT*dA*d[5mC]*dT*dA*dG*dT*dT*eT*e[5mC]*e[5mC]*eT*eA; antisense) [compound 531236] | 4 | 28 | 59 | 85 | 93 | 800 |  |  |  |  |  |  |  |  | 87 |
| 531233 (eA*e[5mC]*eT*eG*eT*dA*d[5mC]*dT*dA*dG*dT*dT*dT*d[5mC]*d[5mC]*eT*eA*eT*eA*eA; antisense) [compound 531233] | 17 | 27 | 50 | 77 | 84 | 1000 |  |  |  |  |  |  |  |  | 86 |
| 530965 (antisense eG*eG*e[5mC]*eA*e[5mC]*dA*dG*dG*dG*d[5mC]*dT*dT*d[5mC]*dA*dG*eT*eG*eA*eG*eA) [compound 530965] |  |  |  |  |  |  |  | 8 | 5 | 63 | 83 | 91 | 800 | 73 |  |
| 531002 (eG*eA*eG*e[5mC]*eT*d[5mC]*d[5mC]*d[5mC]*dT*dT*dG*dT*dG*dT*d[5mC]*e[5mC]*e[5mC]*eA*eT*eA; antisense) [compound 531002] |  |  |  |  |  |  |  | 6 | 28 | 58 | 82 | 86 | 900 | 85 |  |
| 486847 (antisense eA*eG*eG*e[5mC]*eA*dT*dA*dT*dT*dG*dG*dT*dT*dT*dT*eT*eG*eG*eA*eA) [compound 486847] |  |  |  |  |  |  | 78 | 0 | 34 | 48 | 71 | 87 | 1100 |  |  |
| 530992 (eG*eT*e[5mC]*eA*e[5mC]*dA*dT*dT*d[5mC]*dA*dA*dT*dT*d[5mC]*dT*eT*e[5mC]*eT*e[5mC]*e[5mC]; antisense) [compound 530992] |  |  |  |  |  |  |  | 0 | 50 | 63 | 83 | 80 | 700 | 70 |  |
| 531235 (eT*e[5mC]*eA*e[5mC]*eT*dG*dT*dA*d[5mC]*dT*dA*dG*dT*dT*dT*e[5mC]*e[5mC]*eT*eA*eT; antisense) [compound 531235] | 27 | 55 | 62 | 84 | 95 | 400 |  |  |  |  |  |  |  |  | 86 |
| 531078 (eA*eG*e[5mC]*eA*eG*d[5mC]*dT*d[5mC]*dT*dG*dA*dG*dT*dG*d[5mC]*eA*e[5mC]*eT*eG*eT; antisense) [compound 531078] |  |  |  |  |  |  | 77 | 10 | 27 | 54 | 69 | 92 | 1100 |  |  |
| 531198 (eG*eG*eG*eA*eT*dT*dT*dT*dG*d[5mC]*dT*dG*dA*dA*dG*e[5mC]*eT*eG*eG*eT; antisense) [compound 531198] | 0 | 35 | 62 | 76 | 60 | 800 |  |  |  |  |  |  |  |  | 73 |
| 531172 (antisense eT*eT*e[5mC]*eA*eA*dG*d[5mC]*d[5mC]*dT*dG*dG*dG*d[5mC]*dA*dG*e[5mC]*eA*e[5mC]*eA*eG) [compound 531172] | 0 | 16 | 37 | 60 | 60 | 2100 |  |  |  |  |  |  |  |  | 71 |
| 531004 (eA*eG*eA*eG*eT*dA*dA*d[5mC]*d[5mC]*dA*dG*dA*dG*d[5mC]*dT*e[5mC]*e[5mC]*e[5mC]*eT*eT; antisense) [compound 531004] |  |  |  |  |  |  |  | 0 | 14 | 25 | 71 | 84 | 2100 | 76 |  |
